Experimental data taken from patent publication US4046904A, “Novel penicillin, and its preparation and use” (Sumitomo Chemical Company, Limited, priority 1975, dated 1977).
In brackets after ≈: the same amount, converted by molar mass.

Tests used:
Proteus mirabilis = assay: MIC (Table 3); assay type: cell-based; details: Proteus mirabilis strain GN2425; sodium salt
Source text: The minimum inhibitory concentrations obtained with Compound (I) and Compound (C) against the following organisms representing 6 genera are shown in Table 3.
(§1) Note: Compound (I) and Compound (C) were subjected to the test in the form of the sodium salt.

[1] = Acute toxicity in mice, intraperitoneal (Table 9); details: mouse, in vivo, ip
Source text: The acute toxicity of Compound (I) and Compound (C) in ICR strain mice when administered by intraperitoneal route are shown in Table 9.
as §1

Pseudomonas aeruginosa [2] = assay: Intraperitoneal infection in mice, median protective dose (Table 5); assay type: in vivo; details: sc, P. aeruginosa strain TS, male ICR-SLC mice, subcutaneous, 1, 3 and 5 hours after infection, sodium salt, read-out: PD50
Description: (§2) The relative activities of Compound (I) and Compound (C) against various intraperitioneal infections in mice evaluated by the minimum inhibitory concentrations and the means median protective doses (subcutaneously administered) are shown in Table 5.
(§3) Note: Compound (I) and Compound (C) were subjected to the test in the form of the sodium salt. For each test, five male ICR-SLC strain mice were used at each dose level. MIC was determined by the nutrient broth dilution method. In determination of PD50, subsutaneous treatment was carried out three times, i.e. 1, 3 and 5 hours after infection.

Streptococcus faecalis [3] = assay: as above; assay type: in vivo; details: Enterococcus faecalis, sc; S. faecalis strain F10; male ICR-SLC mice; subcutaneous, 1, 3 and 5 hours after infection; sodium salt; read-out: PD50
Description: as §2, §3

Klebsiella pneumoniae [4] = assay: as above; assay type: in vivo; details: sc, K. pneumoniae strain No. 1, male ICR-SLC mice, subcutaneous, 1, 3 and 5 hours after infection, sodium salt, read-out: PD50
Description: as §2, §3

Staphylococcus aureus [5] = assay: as above; assay type: in vivo; details: sc, S. aureus strain A24, male ICR-SLC mice, subcutaneous, 1, 3 and 5 hours after infection, sodium salt, read-out: PD50
Description: as §2, §3

[6] = Serum level in mice after subcutaneous administration (Table 7); assay type: in vivo, ICR-SLC strain mice; details: mouse, sc, subcutaneous 50 mg/kg, sodium salt
Description: The peak serum concentrations of Compound (I) and Compound (C) in ICR strain mice following subcutaneous administration at 50 mg/kg are shown in Table 7.
Note: Compound (I) and Compound (C) were subjected to the test in the form of the sodium salt. For the test, three male ICR-SLC strain mice were used. The bioassay was carried out according to the disc method using Bacillus subtilis.

[7] = Urinary excretion rate in rats after intramuscular administration (Table 8); assay type: in vivo, Wistar-HLA strain rats; details: rat, urine, im, 20 mg/kg, male rats, intramuscular 20 mg/kg, sodium salt
Description: The urinary excretion rates of Compound (I) and Compound (C) following an intramuscular administration of 20 mg/kg in male Wistar-HLA strain rats are shown in Table 8.
as §1

Pseudomonas aeruginosa [8] = assay: MIC, nutrient broth dilution (Table 5); assay type: cell-based; details: Pseudomonas aeruginosa strain TS, sodium salt
Description: as §2, §3

Streptococcus faecalis [9] = assay: MIC, nutrient broth dilution (Table 5); assay type: cell-based; details: Enterococcus faecalis, Streptococcus faecalis strain F10, sodium salt
Description: as §2, §3

Streptococcus faecalis [10] = assay: Median MIC, clinical isolates, agar-plate dilution (Table 4); assay type: cell-based; details: Enterococcus faecalis, 23 strains, agar-plate dilution, sodium salt, read-out: Median minimum inhibitory concentration
Description: (§4) Note: Compound (I) and Compound (C) were subjected to the test in the form of the sodium salt. MIC was determined using the agar-plate dilution method.

Staphylococcus aureus [11] = assay: as above; assay type: cell-based; details: 37 strains, agar-plate dilution, sodium salt, read-out: Median minimum inhibitory concentration
Description: as §4

[12] = Protein-binding rate in human serum (Table 6); assay type: in vitro ADME; details: human, serum, sodium salt
Source text: The following data are related to the pharmacokinetic profiles of Compound (I) compared with Compound (C).
as §1

Pseudomonas = details: background statement; cited from earlier work
Escherichia coli [13] = assay: Intraperitoneal infection in mice, median protective dose (Table 2); assay type: in vivo; details: sc, E. coli strain NIHJ, male ICR-SLC mice, subcutaneous, 1 and 4 hours after infection, sodium salt, read-out: PD50
Description: (§5) Note: Compound (I), Compound (A) and Compound (B) were subjected to the test in the form of the sodium salt. For each test, eight male ICR-SLC strain mice were used at each dose level. MIC was determined by the nutrient broth dilution method. In determination of PD50, subcutaneous treatment was carried out twice, i.e. 1 and 4 hours after infection.

Pseudomonas aeruginosa [14] = assay: as above; assay type: in vivo; details: sc, subcutaneous, 1 and 4 hours after infection, sodium salt, read-out: PD50
Description: as §5

Klebsiella pneumoniae [15] = assay: as above; assay type: in vivo; details: sc, subcutaneous, 1 and 4 hours after infection, sodium salt, read-out: PD50
Description: as §5

Escherichia coli [16] = assay: MIC, nutrient broth dilution (Table 2); assay type: cell-based; details: Escherichia coli strain NIHJ, sodium salt
Description: as §5

Pseudomonas aeruginosa [17] = assay: MIC, nutrient broth dilution (Table 2); assay type: cell-based
Description: as §5

Klebsiella pneumoniae [18] = assay: MIC, nutrient broth dilution (Table 2); assay type: cell-based; details: Klebsiella pneumoniae strain No. 6, sodium salt
Description: as §5

Proteus morganii = assay: Median MIC, clinical isolates, agar-plate dilution (Table 1); assay type: cell-based; details: Morganella morganii, 14 clinical isolates, sodium salt, read-out: Median minimum inhibitory concentration
Description: (§6) Note: Compound (I) and Compound (A) were subjected to the test in the form of the sodium salt. The minimum inhibitory concentration (MIC) was determined using the agar-plate dilution method recommended by Japan Society of Chemotherapy.

Pseudomonas aeruginosa [19] = assay: as above; assay type: cell-based; details: 49 clinical isolates, sodium salt, read-out: Median minimum inhibitory concentration
Description: as §6

Escherichia = assay: as above; assay type: cell-based; details: read-out: Median minimum inhibitory concentration
Description: as §6

Serratia = assay: as above; assay type: cell-based; details: 6 clinical isolates, sodium salt, read-out: Median minimum inhibitory concentration
Description: as §6

Proteus vulgaris = assay: as above; assay type: cell-based; details: 7 clinical isolates, sodium salt, read-out: Median minimum inhibitory concentration
Description: as §6

Enterobacter aerogenes = assay: as above; assay type: cell-based; details: Klebsiella aerogenes, 8 clinical isolates, sodium salt, read-out: Median minimum inhibitory concentration
Description: as §6

Klebsiella pneumoniae [20] = assay: as above; assay type: cell-based; details: 26 clinical isolates, sodium salt, read-out: Median minimum inhibitory concentration
Description: as §6

Staphylococcus aureus [21] = assay: as above; assay type: cell-based; details: 37 clinical isolates, sodium salt, read-out: Median minimum inhibitory concentration
Description: as §6

For `CC1(C)S[C@@H]2[C@H](NC(=O)[C@H](NC(=O)c3cnc4cccnc4c3O)c3ccc(O)cc3)C(=O)N2[C@H]1C(=O)O` [Compound (C), 6-[D-2-(4-hydroxy-1,5-naphthyridine-3-carbonamido)-2-(p-hydroxyphenyl)acetamido]penicillanic acid, reference compound], the MIC (Proteus mirabilis) was 1.56 µg/mL, the LD50 [1] was 3100 mg/kg and the ED50 (Pseudomonas aeruginosa [2]) was 15 mg/kg. It also gave an ED50 (Streptococcus faecalis [3]) of 6 mg/kg, an ED50 (Klebsiella pneumoniae [4]) of 18 mg/kg and an ED50 (Staphylococcus aureus [5]) of 32 mg/kg. For the same compound, the concentration at 0.5 h ([6]; 1/2 hr.) was 32000 ng/mL, the concentration at 0.25 h ([6]; 1/4 hr.) was 44000 ng/mL and the concentration at 1 h ([6]; 1 hr.) was 8000 ng/mL. The concentration at 2 h ([6]; 2 hr.) was 5000 ng/mL, the dose excreted at 6 h ([7]; 0-6 hr.) was 19.5% and the dose excreted at 24 h ([7]; 0-24 hr.) was 20%. The dose excreted at 24 h ([7]; 6-24 hr.) was 0.5%, the MIC (Pseudomonas aeruginosa [8]) was 3.13 µg/mL and the MIC (Streptococcus faecalis [9]) was 1.56 µg/mL. For the same compound, the MIC50 (Streptococcus faecalis [10]) was 3.8 µg/mL, the MIC50 (Staphylococcus aureus [11]) was 60 µg/mL and the fraction unbound ([12]; Ultracentrifugation method) was 0.08. For the same compound, the fraction unbound ([12]; Ultrafiltration method) was 0.1.
For `CC1(C)S[C@@H]2[C@H](NC(=O)C(C(=O)O)c3ccccc3)C(=O)N2[C@H]1C(=O)O` (stereo partly shown) [Carbenicillin], the anti-Pseudomonas activity (Pseudomonas) is given as “not sufficiently strong”.
`CC1(C)S[C@@H]2[C@H](NC(=O)[C@H](NC(=O)c3cnccc3O)c3ccc(O)cc3)C(=O)N2[C@H]1C(=O)O` [Compound (A), 6-[D-2-(4-hydroxypyridine-3-carbonamido)-2-(p-hydroxyphenyl)acetamido]penicillanic acid, reference compound] showed an ED50 (Escherichia coli [13]) of 3 mg/kg, an ED50 (Pseudomonas aeruginosa [14]; P. aeruginosa strain NC-5, male ICR-SLC mice) of 60 mg/kg and an ED50 (Pseudomonas aeruginosa [14]; P. aeruginosa strain T, male ICR-SLC mice) of 51 mg/kg. It also gave an ED50 (Klebsiella pneumoniae [15]; K. pneumoniae strain No. 1, male ICR-SLC mice) of 100 mg/kg, an ED50 (Klebsiella pneumoniae [15]; K. pneumoniae strain No. 6, male ICR-SLC mice) of 120 mg/kg and an ED50 (Klebsiella pneumoniae [15]; K. pneumoniae strain No. 20, male ICR-SLC mice) of over 150 mg/kg. It also gave an MIC (Escherichia coli [16]) of 12.5 µg/mL, an MIC (Pseudomonas aeruginosa [17]; Pseudomonas aeruginosa strain NC-5, sodium salt) of 6.25 µg/mL and an MIC (Pseudomonas aeruginosa [17]; Pseudomonas aeruginosa strain T, sodium salt) of 12.5 µg/mL. The MIC (Klebsiella pneumoniae [18]) was 100 µg/mL, the MIC50 (Proteus morganii) was 50 µg/mL and the MIC50 (Pseudomonas aeruginosa [19]) was 5 µg/mL. For the same compound, the MIC50 (Escherichia) was 14 µg/mL (≈ 28.8 µM), the MIC50 (Serratia) was over 200 µg/mL and the MIC50 (Proteus vulgaris) was 115 µg/mL. For the same compound, the MIC50 (Enterobacter aerogenes) was 100 µg/mL, the MIC50 (Klebsiella pneumoniae [20]) was 73 µg/mL and the MIC50 (Staphylococcus aureus [21]) was 21 µg/mL.
For `CC1(C)S[C@@H]2[C@H](NC(=O)[C@H](N)c3ccccc3)C(=O)N2[C@H]1C(=O)O` [Ampicillin], the anti-Pseudomonas activity (Pseudomonas) is given as “does not exert any appreciable anti-Pseudomonas activity”.
For `CC1(C)S[C@@H]2[C@H](NC(=O)C(c3ccccc3)S(=O)(=O)O)C(=O)N2[C@H]1C(=O)O` (stereo partly shown) [Sulfocillin], the anti-Pseudomonas activity (Pseudomonas) is given as “not sufficiently strong”.
